Experimental data reported in US20160297830A1, “NOVEL COMPOUNDS USEFUL FOR THE TREATMENT OF BACTERIAL INFECTIOUS DISEASES” (GALAPAGOS NV, priority 2013, published 2016).
In brackets after ≈: the same amount, converted by molar mass. Like-named read-outs stand apart in the source and are kept apart here.

Legend:
E. coli Ec1 ATCC 25922 = assay: Antibacterial activity assay (MIC), E. coli Ec1; type: cell-based; details: Escherichia coli
[1] = tested on: H. influenza Hi106 ATCC 51907; assay: organism not typed; type: cell-based; details: read-out: MIC Hi106
[2] = tested on: S. aureus Sa2 clinical strain NCIMB 41953, MRSA; assay: microbe, parasite or virus in culture; type: cell-based; details: Staphylococcus aureus, read-out: MIC Sa2
S. aureus Sa4 NCTC 6571 = assay: Antibacterial activity assay (MIC), S. aureus Sa4; type: cell-based; details: Staphylococcus aureus
[3] = tested on: S. aureus Sa26 ATCC 25923; assay: Antibacterial activity assay (MIC), S. aureus Sa26; type: cell-based; details: Staphylococcus aureus
[4] = tested on: E. coli Ec113 efflux pump KO; assay: microbe, parasite or virus in culture; type: cell-based; details: Escherichia coli, read-out: MIC Ec113 efflux pump KO
[5] = tested on: H. influenza Hi10 clinical strain; assay: organism not typed; type: cell-based; details: read-out: MIC Hi10
S. aureus Sa1 ATCC 13709 = assay: microbe, parasite or virus in culture; type: cell-based; details: Staphylococcus aureus
[6] = target: DNA Polymerase IIIα (DnaE) from Staphylococcus aureus (Staphylococcus aureus, UniProt Q6GG04); assay: biochemical
DNA III Polymerase E = DNA III Polymerase E (Escherichia coli, UniProt P10443); assay: In vitro activity against DNA III Polymerase E, E. coli; type: biochemical; details: DNA polymerase III, E. coli; read-out: IC50 semiquantitative scoring, E. coli
Protocol: A radioactive filterplate assay was used to assess inhibitory activity of compounds on DNA Polymerase IIIα. Five μL of a dilution series of compound, starting from 100 μM highest concentration, 1/5 dilution, was added to the wells of a 96 well plate. Recombinant enzyme was diluted to 0.47 μg/mL in a buffer containing 20 mM Tris pH7.5, 8 mM DTT, 10 mM MgOAc, 0.05% CHAPS and 10 μL thereof was added to the compound dilutions. The reaction was started with the addition of 10 μL substrate in the same buffer, containing activated calf thymus DNA (Sigma, D4522), dATP, dGTP, dCTP, dTTP (Invitrogen) and [α-33P]-dTTP (Perkin Elmer, NEG605H001) at a concentration of 62.5 μg/mL, 50 nM and 7.5 μCi/mL respectively. The mixture was incubated at 30° C. for 120 minutes and terminated by addition of phosphoric acid. Samples were transferred to filter plates and incorporated radioactivity was measured by the Topcount. Data were converted to percent inhibition with respect to positive and negative controls. IC50 values were calculated using Graph Prism™ software.

[7] = tested on: H. influenza Hi3 ATCC 31517; assay: organism not typed; type: cell-based; details: read-out: MIC Hi3
[8] = tested on: H. influenza Hi47 clinical strain, Ampicillin Resistant; assay: organism not typed; type: cell-based; details: read-out: MIC Hi47
[9] = tested on: E. coli Ec50 efflux pump KO; assay: microbe, parasite or virus in culture; type: cell-based; details: Escherichia coli, read-out: MIC Ec50 efflux pump KO
[10] = ATCC25922, E. coli Ec1 ATCC 25922, sensitive strain, read-out: MIC Ec1
[11] = NCTC6571, S. aureus Sa4 NCTC 6571, sensitive strain, read-out: MIC Sa4
[12] = ATCC25923, read-out: MIC Sa26 + 10% SH, S. aureus Sa26 + 10% SH
[13] = ATCC25923, read-out: MIC Sa26 + 50% SH, S. aureus Sa26 + 50% SH
[14] = ATCC25923, S. aureus Sa26 ATCC 25923, sensitive strain, Mueller-Hinton Broth, 37° C., read-out: MIC Sa26
[15] = ATCC13709, S. aureus Sa1 ATCC 13709, sensitive strain, Mueller-Hinton Broth, 37° C., read-out: MIC Sa1
[16] = DNA polymerase III, S. aureus, read-out: IC50 semiquantitative scoring, S. aureus

Sequence of DNA Polymerase IIIα (DnaE) from Staphylococcus aureus (Q6GG04 1-1022): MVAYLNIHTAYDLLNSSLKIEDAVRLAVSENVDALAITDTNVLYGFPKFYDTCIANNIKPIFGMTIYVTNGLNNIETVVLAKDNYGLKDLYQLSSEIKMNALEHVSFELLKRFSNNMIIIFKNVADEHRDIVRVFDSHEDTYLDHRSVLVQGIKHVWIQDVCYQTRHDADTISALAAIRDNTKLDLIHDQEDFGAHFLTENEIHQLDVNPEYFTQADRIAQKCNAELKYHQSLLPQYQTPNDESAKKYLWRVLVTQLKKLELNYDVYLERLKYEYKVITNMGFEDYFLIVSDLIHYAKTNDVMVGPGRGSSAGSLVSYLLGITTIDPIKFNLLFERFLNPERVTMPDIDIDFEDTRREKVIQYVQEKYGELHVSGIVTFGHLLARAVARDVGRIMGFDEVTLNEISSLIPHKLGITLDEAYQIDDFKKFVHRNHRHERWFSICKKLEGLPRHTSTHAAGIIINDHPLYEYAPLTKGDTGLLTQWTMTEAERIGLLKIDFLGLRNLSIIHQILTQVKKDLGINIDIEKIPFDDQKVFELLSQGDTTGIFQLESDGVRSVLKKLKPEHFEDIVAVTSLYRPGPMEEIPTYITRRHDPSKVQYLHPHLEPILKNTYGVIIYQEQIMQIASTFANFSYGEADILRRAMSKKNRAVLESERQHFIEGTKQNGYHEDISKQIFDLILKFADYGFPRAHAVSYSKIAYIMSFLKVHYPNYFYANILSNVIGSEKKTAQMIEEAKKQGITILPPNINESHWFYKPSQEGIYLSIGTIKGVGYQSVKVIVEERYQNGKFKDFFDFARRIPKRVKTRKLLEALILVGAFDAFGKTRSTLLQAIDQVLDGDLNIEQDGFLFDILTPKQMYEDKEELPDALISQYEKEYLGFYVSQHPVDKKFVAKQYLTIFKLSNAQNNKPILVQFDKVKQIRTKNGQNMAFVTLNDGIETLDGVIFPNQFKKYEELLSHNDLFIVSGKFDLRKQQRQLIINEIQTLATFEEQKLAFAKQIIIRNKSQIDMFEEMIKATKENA
Sequence of DNA III Polymerase E (P10443 whole entry): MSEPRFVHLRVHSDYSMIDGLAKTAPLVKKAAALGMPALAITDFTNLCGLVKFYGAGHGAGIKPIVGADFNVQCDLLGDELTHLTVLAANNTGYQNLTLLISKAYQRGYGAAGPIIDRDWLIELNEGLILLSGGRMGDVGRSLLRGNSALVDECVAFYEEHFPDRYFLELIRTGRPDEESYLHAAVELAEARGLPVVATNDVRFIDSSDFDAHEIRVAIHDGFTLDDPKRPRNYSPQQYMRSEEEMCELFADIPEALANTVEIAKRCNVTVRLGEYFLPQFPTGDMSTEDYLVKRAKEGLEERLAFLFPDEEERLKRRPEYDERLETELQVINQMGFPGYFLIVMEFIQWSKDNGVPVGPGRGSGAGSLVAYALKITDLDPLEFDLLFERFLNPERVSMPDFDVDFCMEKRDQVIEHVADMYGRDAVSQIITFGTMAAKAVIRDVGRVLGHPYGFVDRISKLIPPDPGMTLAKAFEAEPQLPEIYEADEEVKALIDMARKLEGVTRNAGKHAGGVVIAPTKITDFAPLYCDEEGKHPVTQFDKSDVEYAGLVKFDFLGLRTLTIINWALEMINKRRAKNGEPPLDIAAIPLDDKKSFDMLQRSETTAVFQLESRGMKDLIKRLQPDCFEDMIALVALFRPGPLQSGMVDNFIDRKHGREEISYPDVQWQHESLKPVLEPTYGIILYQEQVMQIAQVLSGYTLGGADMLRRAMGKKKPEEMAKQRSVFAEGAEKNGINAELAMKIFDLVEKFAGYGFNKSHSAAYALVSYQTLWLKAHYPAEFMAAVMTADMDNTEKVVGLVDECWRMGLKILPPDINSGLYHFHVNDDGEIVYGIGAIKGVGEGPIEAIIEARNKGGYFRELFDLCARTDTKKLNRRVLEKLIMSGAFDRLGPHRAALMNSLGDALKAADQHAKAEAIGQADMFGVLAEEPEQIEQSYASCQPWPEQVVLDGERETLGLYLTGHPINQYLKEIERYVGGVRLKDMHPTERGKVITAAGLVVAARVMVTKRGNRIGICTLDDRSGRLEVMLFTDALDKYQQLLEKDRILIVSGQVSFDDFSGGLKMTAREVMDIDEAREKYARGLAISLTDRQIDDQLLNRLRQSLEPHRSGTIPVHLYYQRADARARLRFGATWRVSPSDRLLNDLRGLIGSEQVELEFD

| Structure (SMILES) | MIC [1] [µg/mL] | MIC [2] [µg/mL] | MIC [4] [µg/mL] | MIC [5] [µg/mL] | IC50 [6] [nM] | MIC [7] [µg/mL] | MIC [8] [µg/mL] | MIC (E. coli Ec1 ATCC 25922; [10]) [µg/mL] | MIC (S. aureus Sa4 NCTC 6571; [11]) [µg/mL] | MIC [3, 12] [µg/mL] | MIC [3, 13] [µg/mL] | MIC [3, 14] [µg/mL] | MIC (S. aureus Sa1 ATCC 13709; [15]) [µg/mL] | MIC [9] [µg/mL] | IC50 [6, 16] [nM] | further results |
| --- | --- | --- | --- | --- | --- | --- | --- | --- | --- | --- | --- | --- | --- | --- | --- | --- |
| COC[C@@H](O)[C@H]1OC(=O)[C@H](COC)[C@H]2C=C[C@H]3[C@H]4O[C@]2(/C(C)=C/[C@H]1C)[C@@H]3[C@H](O)[C@@H](C)[C@H]4OC(=O)c1cc(F)c[nH]1 [Compound 23, 8-O-4-Fluoro-1H-pyrrole-2′-carbonylbaleomycin] | 64 (≈ 114 µM) | 4 (≈ 7.1 µM) | 0.12 (≈ 0.213 µM) | 64 (≈ 114 µM) | 1.77 to 1770 | > 64 | 64 (≈ 114 µM) | – | – | – | – | – | – | – | – | MIC (E. coli Ec1 ATCC 25922; ATCC25922, read-out: MIC Ec1): > 64 µg/mL; MIC (S. aureus Sa4 NCTC 6571; NCTC6571, read-out: MIC Sa4): 1 µg/mL (≈ 1.77 µM); MIC ([3]; ATCC25923, read-out: MIC Sa26): 1 µg/mL (≈ 1.77 µM); MIC ([3]; ATCC25923, read-out: MIC Sa26 + 10% SH): 2 µg/mL; MIC ([3]; ATCC25923, read-out: MIC Sa26 + 50% SH): 4 µg/mL; MIC (S. aureus Sa1 ATCC 13709; ATCC13709, read-out: MIC Sa1): 1 µg/mL (≈ 1.77 µM); IC50 (DNA III Polymerase E): 1.77 to 17.7 µM |
| COC[C@@H]1[C@@H](O)[C@@H]2[C@H]3C=C[C@@H]4[C@@H](COC)C(=O)O[C@H]([C@H](O)COC)[C@H](C)/C=C(\C)[C@@]24O[C@H]3[C@@H]1OC(=O)c1cc(Br)c[nH]1 [Compound 32, 8-O-4-Bromo-1H-pyrrole-2′-carbonylbranimycin] | > 64 | 4 (≈ 6.11 µM) | 64 (≈ 97.8 µM) | > 64 | 1.53 to 1530 | > 64 | > 64 | > 64 | 8 (≈ 12.2 µM) | 16 | 64 | 16 (≈ 24.4 µM) | 4 (≈ 6.11 µM) | > 64 | – | – |
| COC[C@@H]1[C@@H](O)[C@@H]2[C@H]3C=C[C@@H]4[C@@H](COC)C(=O)O[C@H]([C@H](O)COC)[C@H](C)/C=C(\C)[C@@]24O[C@H]3[C@@H]1OC(=O)c1cc(Br)c(Br)[nH]1 [Compound 34, 8-O-4,5-Dibromo-1H-pyrrole-2′-carbonylbranimycin] | > 64 | 64 (≈ 87.3 µM) | 64 (≈ 87.3 µM) | > 64 | – | > 64 | 16 (≈ 21.8 µM) | > 64 | 32 (≈ 43.6 µM) | > 64 | > 64 | 64 (≈ 87.3 µM) | 64 (≈ 87.3 µM) | > 64 | 1360 to 13600 | – |
| COC[C@@H]1[C@@H](O)[C@@H]2[C@H]3C=C[C@@H]4[C@@H](COC)C(=O)O[C@H]([C@H](O)COC)[C@H](C)/C=C(\C)[C@@]24O[C@H]3[C@@H]1OC(=O)c1cc(Br)c(Br)o1 [Compound 36, 8-O-4,5-Dibromofurane-2′-carbonylbranimycin] | > 64 | 64 (≈ 87.1 µM) | 64 (≈ 87.1 µM) | > 64 | – | > 64 | > 64 | > 64 | 32 (≈ 43.6 µM) | > 64 | > 64 | > 64 | 64 (≈ 87.1 µM) | > 64 | 1.36 to 1360 | – |
| COC[C@@H]1[C@@H](O)[C@@H]2[C@H]3C=C[C@@H]4[C@@H](COC)C(=O)O[C@H]([C@H](O)COC)[C@H](C)/C=C(\C)[C@@]24O[C@H]3[C@@H]1OC(=O)c1cc(Br)c(F)[nH]1 [Compound 37, 8-O-4-Bromo-5-Fluoro-1H-pyrrole-2′-carbonylbranimycin] | > 64 | 64 (≈ 95.2 µM) | 16 (≈ 23.8 µM) | > 64 | – | > 64 | > 64 | > 64 | 64 (≈ 95.2 µM) | > 64 | > 64 | 64 (≈ 95.2 µM) | > 64 | > 64 | 1.49 to 1490 | – |
| COC[C@@H]1[C@@H](O)[C@@H]2[C@H]3C=C[C@@H]4[C@@H](COC)C(=O)O[C@H]([C@H](O)COC)[C@H](C)/C=C(\C)[C@@]24O[C@H]3[C@@H]1OC(=O)c1cc(C)n[nH]1 [Compound 39, 8-O-5-Methyl-1H-Pyrazole-3′-carbonylbranimycin] | > 64 | > 64 | > 64 | > 64 | 1690 to 16900 | > 64 | > 64 | > 64 | > 64 | > 64 | > 64 | > 64 | > 64 | > 64 | – | – |
